The results in this text go back to patent publication US20230248740A1, “Pharmaceutical Composition Comprising Compound Capable of Penetrating Blood-Brain Barrier as Effective Ingredient for Preventing or Treating Brain Cancer” (DAEGU-GYEONGBUK MEDICAL INNOVATION FOUNDATION, priority 2017, published 2023).

Data set [1] concerns the target T1, LRRK2 protein (Homo sapiens, UniProt Q5S007).
T1 construct: endogenous in cells; host or cells: NCC01 (brain-tumor-patient-derived cell line)
As to the kind of experiment: LRRK2 protein phosphorylation inhibitory activity, Western blotting, 448T cells. The class given is cell-based, human (brain-tumor-patient-derived cell line). Particulars: after 1 day. As to the method:
An experiment was conducted in order to evaluate the in-vitro drug efficacy of the compound of Comparative Example, known as an LRRK2 protein inhibitor.
On the technique in general: Immunoblotting shows a protein as a band on a membrane.

For data set [2], the target named is T1, LRRK2 protein. The experiment in a line: LRRK2 protein phosphorylation inhibitory activity, Western blotting, NCC01 cells. It counts as cell-based, human (brain-tumor-patient-derived cell line). The settings on record: after 1 day. On the procedure:
In order to evaluate drug efficacy in vitro, a Western blotting experiment was performed using brain-tumor-patient-derived cell line NCC01 cells.
(§1) Here, the group not treated with the compound of Example was used as a vehicle.
as §1
Here, the group not treated with the compound of Example was used as a vehicle. […]
More specifically, 7.5x10^5 to 1.0x10^6 cells were treated with the compound of Comparative Example at a concentration of 0.1 or 1.0 µM, and after 1 day, samples were collected and evaluated for LRRK2 protein phosphorylation inhibitory activity through Western blotting. Here, the group not treated with the compound of Example was used as a vehicle.

Data set [3] has as its system NCC01 cells. The experiment in a line: Apoptosis induction activity, FACS, NCC01 cells. The class given is cell-based, human (brain-tumor-patient-derived cell line). Particulars: 100 nM, after 1 day. On the procedure: In order to evaluate whether apoptosis of brain tumor cells is induced by inhibiting LRRK2 protein phosphorylation, an experiment was conducted using FACS (fluorescence-activated cell sorting).
More specifically, 7.5x10^5 to 1.0x10^6 NCC01 cells were treated with the compound of each of Examples 11, 12 and 21 at a concentration of 100 nM, and after 1 day, samples were collected and subjected to FACS, thus assaying the apoptosis induction activity. The group not treated with the compound of Example was used as a control.

Data set [4] concerns TRAP1 (TNF receptor associated protein 1). The experiment in a line: TRAP1 expression, Western blotting, brain tumor stem cell line NCC01. The class given is cell-based, human (brain-tumor-patient-derived cell line). The settings on record: NCC01 cells, 100 or 1,000 nM, after 1 day. As to the method: Specifically, brain tumor stem cell line NCC01 cells were added with the compound of Example 12 at a concentration of 100 or 1,000 nM, and after 1 day, changes in the expression of TRAP1 were measured through Western blotting. Here, the group not treated with the compound of Example was used as a vehicle.

In the next data set the test system is U87MG cells. As to the kind of experiment: Therapeutic effect on brain tumor upon co-administration with Avastin, U87MG orthotopic mouse model. It counts as in vivo, Balb/c-nude mice. Particulars: Example 12 orally 30 mg/kg in combination with Avastin intraperitoneally 10 mg/kg, vs Avastin. On the procedure: More specifically, orthotopic mouse models were manufactured using 5-week-old Balb/c-nude mice. U87MG cells (ATCC, USA), a brain tumor cell line, were injected 3.5 mm deep at a position 2.2 mm to the left of and 0.5 mm behind the bregma using a stereotaxic device. 3 days after injection of the cells, mice were divided into three groups of 5 mice per group (a control (vehicle), a group administered with Avastin, and a group administered with the compound of Example 12 and Avastin), and the drug was administered thereto. The compound of Example 12 was orally administered at a dose of 30 mg/kg and Avastin was injected intraperitoneally at a dose of 10 mg/kg.

In data set [5] the target is T1, LRRK2 protein. As to the kind of experiment: LRRK2 protein phosphorylation inhibitory activity, Western blotting, NCC01 cells. The class given is cell-based, human (brain-tumor-patient-derived cell line). Particulars: for LRRK2 protein phosphorylation: after 1 day.
For data set [6], the system named is NCC01 cells. The experiment in a line: Mitochondrial function, TMRE staining of activated mitochondria, NCC01 cells. Particulars: after 1 day. It counts as cell-based, human (brain-tumor-patient-derived cell line). On the procedure: Specifically, NCC01 cells were treated with the compound of Example 12 at 1 µM, and after 1 day, TMRE (tetramethylrhodamine ethylester) dye for staining activated mitochondria was added thereto to evaluate changes in mitochondrial function. Here, the group not treated with the compound of Example was used as a control.
Specifically, brain tumor stem cell line NCC01 cells were treated with the compound of Example 12 at a concentration of 0.1 or 1 µM, and after 1 day, the mitochondria were stained as described in Experimental Example 9 to assay changes in the function thereof. Here, the group not treated with the compound of Example was used as a vehicle.

A further data set relates to 448T cells. As to the kind of experiment: Growth inhibitory activity on brain tumor cells in animal model, 448T cells injected into the brain. Particulars: orally, 60 mg/kg. The class given is in vivo, Balb/c-nude mouse. As to the method: (§2) More specifically, 1.0x10^4 NCC01 cells, a brain-tumor-patient-derived cell line, were injected into the brain of a Balb/c-nude mouse model, and after 3 days, the compound of Example 12 was orally administered at a dose of 10 mg/kg or 60 mg/kg. After administration of the compound, the survival rate of the mice based on the survival period was determined, and the size of the tumors generated in the mice was measured using MRI. Here, the group not treated with the compound of Example was used as a vehicle.
Specifically, the experiment was conducted in the same manner under the same conditions as in Experimental Example 14, with the exception that 448T cells were used in lieu of NCC01 cells, and the compound of each of Examples 12, 20 and 21 was orally administered at a dose of 60 mg/kg.

The test system of data set [7] is NCC01 cells. The experiment in a line: Growth inhibitory activity on brain tumor cells in animal model, NCC01 cells injected into the brain. It counts as in vivo, Balb/c-nude mouse. The settings on record: orally. On the procedure:
as §2

The test system of a further data set is NESTIN protein. As to the kind of experiment: Expression of NESTIN protein (cancer stem cell marker), Western blotting, NCC01 cells. The class given is cell-based, human (brain-tumor-patient-derived cell line). Particulars: 50 to 2,000 nM, after 1 day. On the procedure: More specifically, 1.0x10^6 NCC01 cells were treated with the compound of Example 12 at concentrations of 50, 100, 500, 1,000 and 2,000 nM. After 1 day, samples were collected and the expression of NESTIN protein, which is a cancer stem cell marker involved in the intracellular signaling pathway, was measured through Western blotting. Here, the group not treated with the compound of Example was used as a vehicle.

A further data set concerns 528NS cells. As to the kind of experiment: Sphere size under hypoxic conditions with shRNA against the LRRK2 gene, 528NS cells. The class given is cell-based. Particulars: 528NS cells exposed to hypoxic conditions. As to the method: (§3) Specifically, NCC01 and 528NS cells were exposed to hypoxic conditions and treated with two kinds of shRNA against the LRRK2 gene, after which changes in the size of spheres were measured. Here, a control was shRNA (shNT) against luciferase.

Data set [8] deals with NCC01 cells. The experiment in a line: Sphere size under hypoxic conditions with shRNA against the LRRK2 gene, NCC01 cells. It counts as cell-based, human (brain-tumor-patient-derived cell line). Particulars: NCC01 cells exposed to hypoxic conditions. As to the method:
as §3

[9] abbreviates: 100 or 1,000 nM, compared to the vehicle.

A value given as a limit tells only on which side of the number the result lay.

T1 sequence (Q5S007 whole entry): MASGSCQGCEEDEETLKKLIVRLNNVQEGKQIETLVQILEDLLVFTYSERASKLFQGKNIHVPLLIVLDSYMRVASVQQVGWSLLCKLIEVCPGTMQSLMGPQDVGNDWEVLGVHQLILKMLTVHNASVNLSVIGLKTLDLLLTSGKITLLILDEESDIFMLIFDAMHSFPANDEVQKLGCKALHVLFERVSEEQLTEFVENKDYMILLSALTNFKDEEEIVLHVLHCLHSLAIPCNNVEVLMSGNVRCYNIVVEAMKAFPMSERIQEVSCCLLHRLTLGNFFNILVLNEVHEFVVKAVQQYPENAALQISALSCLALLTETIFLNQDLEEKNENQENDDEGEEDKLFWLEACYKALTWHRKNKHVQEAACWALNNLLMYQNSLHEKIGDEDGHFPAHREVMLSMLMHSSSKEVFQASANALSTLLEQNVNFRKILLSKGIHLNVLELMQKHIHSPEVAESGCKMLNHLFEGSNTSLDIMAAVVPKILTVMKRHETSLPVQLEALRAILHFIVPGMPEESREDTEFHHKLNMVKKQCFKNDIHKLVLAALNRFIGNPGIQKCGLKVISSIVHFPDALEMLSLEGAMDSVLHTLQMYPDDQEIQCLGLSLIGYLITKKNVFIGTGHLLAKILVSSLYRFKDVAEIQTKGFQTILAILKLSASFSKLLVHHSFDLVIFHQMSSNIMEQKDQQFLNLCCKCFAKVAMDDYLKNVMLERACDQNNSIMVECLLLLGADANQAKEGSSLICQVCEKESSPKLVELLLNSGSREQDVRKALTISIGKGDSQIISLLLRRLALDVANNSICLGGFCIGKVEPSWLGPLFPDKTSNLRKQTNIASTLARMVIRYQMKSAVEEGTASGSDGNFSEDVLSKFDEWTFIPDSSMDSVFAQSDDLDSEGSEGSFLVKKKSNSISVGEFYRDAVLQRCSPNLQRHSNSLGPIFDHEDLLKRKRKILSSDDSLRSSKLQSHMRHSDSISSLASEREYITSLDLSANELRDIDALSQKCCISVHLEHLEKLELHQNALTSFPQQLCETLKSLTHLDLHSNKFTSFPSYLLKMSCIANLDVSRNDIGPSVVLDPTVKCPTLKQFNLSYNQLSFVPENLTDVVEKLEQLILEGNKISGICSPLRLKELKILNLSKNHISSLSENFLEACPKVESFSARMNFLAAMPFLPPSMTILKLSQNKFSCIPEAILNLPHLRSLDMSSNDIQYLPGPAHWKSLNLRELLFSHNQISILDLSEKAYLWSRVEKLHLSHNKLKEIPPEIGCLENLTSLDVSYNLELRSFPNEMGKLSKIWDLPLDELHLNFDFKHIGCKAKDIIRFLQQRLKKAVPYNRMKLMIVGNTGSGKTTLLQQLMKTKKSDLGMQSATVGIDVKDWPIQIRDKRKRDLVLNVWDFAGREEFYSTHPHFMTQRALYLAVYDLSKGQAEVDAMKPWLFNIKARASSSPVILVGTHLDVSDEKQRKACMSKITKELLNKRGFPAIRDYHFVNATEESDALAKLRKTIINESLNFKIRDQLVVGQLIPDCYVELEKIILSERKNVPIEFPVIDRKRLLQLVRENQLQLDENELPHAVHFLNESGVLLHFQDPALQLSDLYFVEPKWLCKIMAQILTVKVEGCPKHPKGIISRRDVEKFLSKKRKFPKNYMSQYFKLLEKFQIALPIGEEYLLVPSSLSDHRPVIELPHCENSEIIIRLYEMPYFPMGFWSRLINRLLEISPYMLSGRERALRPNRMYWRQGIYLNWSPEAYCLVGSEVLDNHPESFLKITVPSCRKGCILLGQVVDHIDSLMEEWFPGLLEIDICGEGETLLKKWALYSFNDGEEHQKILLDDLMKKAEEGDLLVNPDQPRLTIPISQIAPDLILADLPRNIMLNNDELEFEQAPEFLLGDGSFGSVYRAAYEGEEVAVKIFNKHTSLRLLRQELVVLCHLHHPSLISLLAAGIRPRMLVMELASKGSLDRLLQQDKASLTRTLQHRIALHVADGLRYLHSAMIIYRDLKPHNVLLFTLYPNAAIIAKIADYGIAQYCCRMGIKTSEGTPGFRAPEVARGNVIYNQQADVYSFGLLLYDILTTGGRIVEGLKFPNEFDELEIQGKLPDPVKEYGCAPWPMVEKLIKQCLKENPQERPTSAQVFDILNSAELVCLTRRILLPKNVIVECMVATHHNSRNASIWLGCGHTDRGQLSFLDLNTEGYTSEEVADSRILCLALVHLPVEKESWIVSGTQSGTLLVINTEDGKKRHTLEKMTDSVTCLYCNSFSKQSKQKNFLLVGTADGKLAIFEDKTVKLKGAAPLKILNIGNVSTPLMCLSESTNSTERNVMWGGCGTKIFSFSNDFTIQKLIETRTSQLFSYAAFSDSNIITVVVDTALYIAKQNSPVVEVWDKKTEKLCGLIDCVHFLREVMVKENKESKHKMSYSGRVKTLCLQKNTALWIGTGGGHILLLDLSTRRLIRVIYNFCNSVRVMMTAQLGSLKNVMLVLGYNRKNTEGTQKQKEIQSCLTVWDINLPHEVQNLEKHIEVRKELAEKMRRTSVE

Regarding `CNc1nc(Nc2cn(C(C)(C)C#N)nc2C)ncc1C(F)(F)F` [Comparative Example, 2-Methyl-2-[3-Methyl-4-[[4-(Methylamino)-5-(Trifluoromethyl)Pyrimidin-2-yl]Amino]Pyrazol-1-yl]Propanenitrile, reference compound], the LRRK2 protein phosphorylation entry is “did not inhibit” at LRRK2 protein [1] (0.1 or 1.0 µM, Examples stated by contrast ('unlike' = inhibited)) and “did not inhibit” at LRRK2 protein [2] (0.1 or 1.0 µM).

Consider `COc1cc(C(=O)N2CCC(N3CCN(C)CC3)CC2)ccc1Nc1ncc2c(n1)N(C)c1ccccc1C(=O)N2C` [Example 10, 2-[(2-Methoxy-4-[[4-(4-Methylpiperazin-1-yl)Piperidin-1-yl]Carbonyl]Phenyl)Amino]-5,11-Dimethyl-5,11-Dihydro-6H-Pyrimido[4,5-b][1,4]Benzodiazepin-6-One], for which the LRRK2 protein phosphorylation result on LRRK2 protein [1] (setting [9]) and on LRRK2 protein [2] (setting [9]) was “significantly inhibited” throughout. In addition, the “phosphorylated LRRK2 protein” value on LRRK2 protein [2] (concentration of 100 nM) is listed as “detected”.

In the case of `CCNc1nc(Nc2cc(F)c(C(=O)N3CCOCC3)cc2OC)ncc1C(F)(F)F` [Example 11, (4-(4-(Ethylamino)-5-(Trifluoromethyl)Pyrimidin-2-Ylamino)-2-Fluoro-5-Methoxyphenyl) (Morpholino)Methanone], the LRRK2 protein phosphorylation entry on LRRK2 protein [1] (setting [9]) and on LRRK2 protein [2] (setting [9]) was “significantly inhibited” in each case. Also, the “apoptosis of NCC01 cells” value in the data set with NCC01 cells [3] is reported as “induced”.

With `CNc1nc(Nc2ccc(C(=O)N3CCOCC3)cc2OC)ncc1C(F)(F)F` [Example 12, (3-Methoxy-4-(4-(Methylamino)-5-(Trifluoromethyl)Pyrimidin-2-Ylamino)Phenyl)(Morpholino)Methanone], in data set [4], the “expression of TRAP1” value is listed as “inhibited”. The “therapeutic effect of Avastin on brain tumors (survival)” value in the data set on U87MG cells is recorded as “further significantly increased”. Further, the “extent of LRRK2 protein phosphorylation over time” value at LRRK2 protein [5] (NCC01 cells, 100 nM, starting 1 day after treatment, samples after 1, 4 and 8 days, reduction continued over time) is on record as “drastically reduced”. Also, the LRRK2 protein phosphorylation entry on LRRK2 protein [5] (NCC01 cells, 50, 100, 500, 1,000 and 2,000 nM, concentration-dependent) is recorded as “inhibited”; on LRRK2 protein [5] (NCC01 cells, concentrations of 50 and 100 nM) it was “mostly inhibited”; on LRRK2 protein [1] (setting [9]) it was “significantly inhibited”; on LRRK2 protein [1] (concentration of 50 nM), “inhibited most”; at LRRK2 protein [2] (setting [9]) it was “significantly inhibited”. Besides, in the data set with NCC01 cells [6] (1 µM), the “fragmentation of nuclei in the cells” value is “occurred”. Also, the “degree of color development of the TMRE dye” value in the data set with NCC01 cells [6] (1 µM, vs control) is listed as “decreased”. In the data set on NCC01 cells [6] (0.1 or 1 µM, compared to the control), the “activity of the mitochondria present in the brain tumor stem cells” value is listed as “inhibited”. Moreover, the “tumor at the position to which the 448T cells were injected” value in the data set on 448T cells is reported as “no tumor was observed”. Moreover, in the data set on NCC01 cells [3], the “apoptosis of NCC01 cells” value is “induced”. Further, the “apoptosis rate relative to the compounds of Examples 11 and 21” value in the data set on NCC01 cells [3] is reported as “about 3 times”. In addition, the “tumor at the position to which the NCC01 cells were injected (MRI)” value with NCC01 cells [7] (10 mg/kg or 60 mg/kg) is “no tumor was observed”. Moreover, the “average survival period of the mice” value in the data set with NCC01 cells [7] (10 mg/kg, vehicle 54 days) amounted to 71 days. Besides, in the data set on NCC01 cells [7] (60 mg/kg, vehicle average 54 days), the “survival of all the mice” value is no less than 100 days. Besides, the “expression of NESTIN protein” value with NESTIN protein is “reducing”.

As to `C[C@@H]1CN(c2cc(-c3n[nH]c4ccc(OC5(C)CC5)cc34)ncn2)C[C@H](C)O1` [Example 20, (2S,6R)-2,6-Dimethyl-4-(6-(5-(1-Methylcyclopropoxy)-1H-Indazol-3-yl)Pyrimidin-4-yl)Morpholine], the “tumor at the position to which the 448T cells were injected” value in the data set on 448T cells is given as “no tumor was observed”.

With `N#Cc1cccc(-c2c[nH]c3nccc(N4CCOCC4)c23)c1` [Example 21, 3-(4-Morpholino-1H-Pyrrolo[2,3-b]Pyridin-3-yl)Benzonitrile], the LRRK2 protein phosphorylation entry at LRRK2 protein [1] (setting [9]) and on LRRK2 protein [2] (setting [9]) was “significantly inhibited” in each case. In the data set with 448T cells, the “tumor at the position to which the 448T cells were injected” value is recorded as “no tumor was observed”. Besides, the “apoptosis of NCC01 cells” value in the data set with NCC01 cells [3] is recorded as “induced”.

With `Cn1cc(-c2c[nH]c3ncnc(N4CCOCC4)c23)cc1C#N` [Example 22, 1-Methyl-4-(4-Morpholino-7H-Pyrrolo[2,3-d]Pyrimidin-5-yl)-1H-Pyrrole-2-Carbonitrile], the LRRK2 protein phosphorylation result at LRRK2 protein [2] (setting [9]) was “significantly inhibited”.

For “LRRK2 shRNA-1: shRNA against the LRRK2 gene, SEQ ID NO: 33 (CCGGCCACAAATTCAACGGAAAGAACTCGAGTTCTTTCCGTTGAATTTGTGGTTTTT)”, the sphere size entry in the data set on 528NS cells and in the data set with NCC01 cells [8] was “suppressed” in each case.

Take “LRRK2 shRNA-2: shRNA against the LRRK2 gene, SEQ ID NO: 34 (CCGGCCCAAATTGGTGGAACTCTTACTCGAGTAAGAGTTCCACCAATTTGGGTTTTT)”: the sphere size entry in the data set on 528NS cells and with NCC01 cells [8] was “suppressed” in each case.
